Assay results: patent US20230107216A1, “PANTETHEINE DERIVATIVES AND USES THEREOF” (Comet Therapeutics, Inc., priority 2018, published 2023)
Where two headings read alike, the source gives them in different places.

Key:
Assay type in all cases: cell-based
HepG2 cells [1] = assay: Glucose uptake (Glucose Uptake-Glo); settings: Homo sapiens, read-out: % increase in Glucose Uptake
[2] = system: Propionic Acidemia (PA) primary fibroblasts GM00371; assay: Mitochondrial respiration, XFe96 Extracellular Flux Analyzer (OCR/ECAR), PA fibroblasts GM00371; settings: Homo sapiens, Fibroblast
[3] = system: Methylmalonic Acidemia (MMA) primary fibroblasts Tsi 5224; assay: Mitochondrial respiration, XFe96 Extracellular Flux Analyzer (OCR/ECAR), MMA fibroblasts Tsi 5224; settings: Homo sapiens, Fibroblast, MMA Tsi 5224, assay condition A (10 mM glucose, 2 mM L-glutamine, 1 mM pyruvate, 10% FBS), read-out: Increase in Maximal Respiratory Capacity AUC;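 also: relative to vehicle DMSO control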
Procedure: The effect of the compounds of the present disclosure on mitochondrial respiration was measured with a XFe96 Extracellular Flux Analyzer (Seahorse Bioscience, Agilent Technologies) and Oxygen consumption Rate (OCR) and Extracellular acidification rate (ECAR) determined.
Cell culture and treatments. Primary adherent fibroblasts were cultured in minimum essential medium (MEM) (Gibco, 25030081) supplemented with 2 mM L-Glutamine (Gibco, 25030081), 15% fetal bovine serum (FBS) (Gibco, 26400044) and 1% penicillin/streptomycin (Gibco, 5140122) at 37° C. and 5% CO2. Cells were collected for either passaging or experiment at ˜70-80% confluence. Cells were obtained by trypsinization and seeded at 20000 cells/well in cell culture microplates (Seahorse Bioscience, 101085-004) and allowed to adhere for 16 hours in culture media.
By profiling different primary cells and/or optimizing their culture media or environmental components one can select cell lines and/or conditions that are appropriate for the biological or disease model. In the present example, 24 hours prior to OCR and ECAR profiling, media was changed to Dulbecco's Modified Eagle Medium (DMEM, Agilent Seahorse 103575-100) with the appropriate supplements for the different primary cells (10 mM glucose, 2 mM L-glutamine, 1 mM pyruvate, 10% FBS; 1 mM glucose, 2 mM L-glutamine, 1 mM pyruvate, 10% FBS; 10 mM glucose, 10% FBS; 5 mM glucose 10% FBS; 1 mM glucose 10% FBS). Cells used in this example were: Propionic Acidemia (PA) (GM00371, GM03590 Coriell Institute for Medical Research, Tsi 6337, Tsi 4626, Tsi 3618 Trans-Hit Bio), Methylmalonic Acidemia (MMA) (GM01673, Coriell Institute for Medical Research, Tsi 5224 Trans-Hit Bio), Branched chain ketoacid dehydrogenase kinase (BCKDK) (GM00612, GM00649 Coriell Institute for Medical Research), Subnormal activation of pyruvate dehydrogenase complex (PDH) (GM01503 Coriell Institute for Medical Research), Very long-chain acyl-CoA dehydrogenase (VLCAD) (GM17475), Leigh Syndrome (LS) (GM03672, GM13411 Coriell Institute for Medical Research), Pyruvate Carboxylase Deficiency (PC) (GM00444 Coriell Institute for Medical Research), Glutaric Acidemia-I (GA) (GM10653), Friedreich's Ataxia (FXN) (GM04078 Coriell Institute for Medical Research, Huntington's disease (HD) (GM21756 Coriell Institute for Medical Research), Ornithine Transcarbamylase Deficiency (OTC) (GM12756 Coriell Institute for Medical Research), Kearns-Sayre Syndrome (KSS) (GM06225 Coriell Institute for Medical Research).
One hour before the assay, the cells were washed with freshly prepared unbuffered serum free-Seahorse XF Assay medium (Seahorse Bioscience, North America, USA, 103575-100) with the same supplements as for the previous 24 hour incubation.
After baseline measurements of OCR, cells were challenged with compounds of the present disclosure at different concentrations (10 to 50 μM) or vehicle (DMSO, 0.1%) and a post-compound baseline was recorded. OCR was measured after sequentially adding to each well 1 μg/ml oligomycin (inhibitor of ATP synthase Sigma-Aldrich, 753531), then maximal OCR was determined with carbonyl cyanide 4-(trifluoromethoxy) phenylhydrazone (FCCP, Sigma-Aldrich, C2920), (uncoupler of oxidative phosphorylation) and 0.5 μM of rotenone (Sigma-Aldrich, R8875) plus antimycin A (Sigma-Aldrich, A8674) (inhibitors of mitochondrial complex I and III) for determination of rotenone-antimycin insensitive respiration together with Hoechst for nuclear staining in situ when normalized to cell counts. After the analysis and nuclear staining, the XFp microplate was transferred to the Cytation 5, and the nuclear images were captured, the individual nuclei were identified and counted by BioTek Gen5 software. Data were expressed as pmol of O2 per minute and normalized by nuclear staining and baselined to pre-compound addition.
Assay conditions were as stated below.
Assay specifics on assay conditions are indicated below when readouts were normalized to cell counts. […]

HepG2 cells [4] = assay: Mitochondrial membrane potential (MITO-ID MP detection Kit); settings: Homo sapiens, 168 h, 50 uM, 7 days, read-out: % decrease in Mitochondrial Membrane Potential
Procedure: HepG2 cells (ATCC, HB-8065) were cultured (5% CO2 at 37° C.) and plated in Poly-D-Lysine 384-Well plate (Corning, 356663) at a density of 160000 cells/mL in 50 μL/well. Culture and assay media consisted of DMEM (Gibco, 11995-065) supplemented with 1% Penicillin-Streptomycin and 10% FBS (Hyclone, SV30087.03).
MITO-ID® MP detection Kit (ENZ-51018) was used and manufacturer instructions followed. Cells were allowed to settle for 30 min at room temperature and further incubated overnight (37° C. and 5% CO2) for adherence. Next day, test compounds (50-10 μM) and vehicle DMSO (0.2%) were added at the recommended volumes to the 384-well plate for 7 days without media change using a Tecan compound dispenser. All the solutions and wash buffers were prepared and dispensed according to manufacturer's volumes for a 384-well plate format.

CC(C)(C)OC(=O)NCC(=O)OCC(C)(C)[C@@H](O)C(=O)NCCC(=O)NCCS [Compound 1274, (3R)-3-hydroxy-2,2-dimethyl-3-([2-[(2-sulfanylethyl)carbamoyl]ethyl]carbamoyl)propyl 2-[(tert-butoxycarbonyl)amino]acetate]
activation at 50 µM (HepG2 cells [1]): ≥ 30%

CC(=O)SCCNC(=O)CCNC(=O)[C@H](O)C(C)(C)COC(=O)CNC(=O)OC(C)(C)C [Compound 1275, (3R)-3-[(2-[[2-(acetylsulfanyl)ethyl]carbamoyl]ethyl)carbamoyl]-3-hydroxy-2,2-dimethylpropyl 2-[(tert-butoxycarbonyl)amino]acetate]
activation at 10 µM (HepG2 cells [1]): ≥ 20%

CC(=O)O[C@@H](C(=O)NCCC(=O)NCCSC(=O)CCC(=O)O)C(C)(C)CO [Compound 211, 4-[(2-[3-[(2R)-2-(acetyloxy)-4-hydroxy-3,3-dimethylbutanamido]propanamido]ethyl)sulfanyl]-4-oxobutanoic acid]
activation at 50 µM (HepG2 cells [1]): ≥ 30%

CC(=O)OCC(C)(C)[C@@H](OC(C)=O)C(=O)NCCC(=O)NCCS [Compound 1263, (1R)-3-(acetyloxy)-2,2-dimethyl-1-([2-[(2-sulfanylethyl)carbamoyl]ethyl]carbamoyl)propyl acetate]
activation at 50 µM (HepG2 cells [1]): ≥ 30%

CC(=O)SCCNC(=O)CCNC(=O)[C@H](O)C(C)(C)CO [Compound 1241, (R)—S-(2-(3-(2,4-dihydroxy-3,3-dimethylbutanamido)propanamido)ethyl) ethanethioate]
activation at 10 µM (HepG2 cells [1]): ≥ 30%

CC(=O)NCC(=O)O[C@@H](C(=O)NCCC(=O)NCCSC(=O)CCC(=O)O)C(C)(C)CO [Compound 1296, 4-[(2-[3-[(2R)-2-[(2-acetamidoacetyl)oxy]-4-hydroxy-3,3-dimethylbutanamido]propanamido]ethyl)sulfanyl]-4-oxobutanoic acid]
activation at 10 µM ([2]; assay condition D (1 mM glucose, 10% FBS), 10 μM, read-out: Increase in Spare Capacity AUC): ≥ 30%
activation at 10 µM (HepG2 cells [1]): ≥ 10%

C[C@H](NC(=O)OC(C)(C)C)C(=O)OCC(C)(C)[C@@H](O)C(=O)NCCC(=O)NCCSSCCNC(=O)CCNC(=O)[C@H](O)C(C)(C)COC(=O)[C@H](C)NC(=O)OC(C)(C)C [Compound 1277, (3R)-3-[[2-([2-[(2-[3-[(2R)-4-[[(2S)-2-[(tert-butoxycarbonyl)amino]propanoyl]oxy]-2-hydroxy-3,3-dimethylbutanamido]propanamido]ethyl)disulfanyl]ethyl]carbamoyl)ethyl]carbamoyl]-3-hydroxy-2,2-dimethylpropyl (2S)-2-[(tert-butoxycarbonyl)amino]propanoate]
activation at 10 µM (HepG2 cells [1]): ≥ 10%

CC(=O)OCC(C)(C)[C@@H](O)C(=O)NCCC(=O)NCCSC(=O)/C=C/C(=O)O [Compound 144, (2E)-4-[(2-[3-[(2R)-4-(acetyloxy)-2-hydroxy-3,3-dimethylbutanamido]propanamido]ethyl)sulfanyl]-4-oxobut-2-enoic acid]
activation at 50 µM (HepG2 cells [1]): ≥ 30%

COC(=O)CCC(=O)SCCNC(=O)CCNC(=O)[C@H](OC(C)=O)C(C)(C)COC(C)=O [Compound 214, methyl 4-[(2-[3-[(2R)-2,4-bis(acetyloxy)-3,3-dimethylbutanamido]propanamido]ethyl)sulfanyl]-4-oxobutanoate]
activation at 50 µM ([2]; assay condition A (10 mM glucose, 2 mM L-glutamine, 1 mM pyruvate, 10% FBS), read-out: Increase in Spare Capacity AUC): ≥ 50%
activation at 50 µM ([2]; assay condition D (1 mM glucose, 10% FBS), read-out: Increase in Spare Capacity AUC): ≥ 10%
activation at 10 µM (HepG2 cells [1]): ≥ 20%

CC(=O)SCCNC(=O)CCNC(=O)[C@H](O)C(C)(C)COC(=O)O[C@H](CC(=O)[O-])C[N+](C)(C)C [Compound 183, (12R,18R)-12-hydroxy-13,13-dimethyl-2,7,11,16-tetraoxo-18-((trimethylammonio)methyl)-15,17-dioxa-3-thia-6,10-diazaicosan-20-oate]
activation at 10 µM [3]: ≥ 10%
activation at 10 µM (HepG2 cells [1]): ≥ 30%

CC(C(=O)O)C(=O)SCCNC(=O)CCNC(=O)[C@H](O)C(C)(C)CO (stereo partly shown) [Compound 393]
activation at 10 µM [3]: ≥ 10%
activation at 10 µM (HepG2 cells [1]): ≥ 30%

C[C@H](NC(=O)OC(C)(C)C)C(=O)OCC(C)(C)[C@@H](O)C(=O)NCCC(=O)NCCS [Compound 1278, (3R)-3-hydroxy-2,2-dimethyl-3-([2-[(2-sulfanylethyl)carbamoyl]ethyl]carbamoyl)propyl (2S)-2-[(tert-butoxycarbonyl)amino]propanoate]
activation at 10 µM (HepG2 cells [1]): ≥ 30%

COC(=O)CCC1(CC(=O)SCCNC(=O)CCNC(=O)[C@H](O)C(C)(C)COC(C)=O)OCC(C)(C)CO1 [Compound 1268, methyl 3-(2-[2-[(2-[3-[(2R)-4-(acetyloxy)-2-hydroxy-3,3-dimethylbu-tanamido]propanamido]ethyl)sulfanyl]-2-oxoethyl]-5,5-dimethyl-1,3-dioxan-2-yl)propanoate]
activation at 50 µM (HepG2 cells [1]): ≥ 30%

C[C@H](O)CC(=O)SCCNC(=O)CCNC(=O)[C@H](O)C(C)(C)CO [Compound 1246, (2R)-2,4-dihydroxy-N-{2-[(2-{[(3S)-3-hydroxybutanoyl]sulfanyl}ethyl)carbamoyl]ethyl}-3,3-dimethylbutanamide]
inhibition at 50 µM (HepG2 cells [4]): > 50%

CC(=O)SCCNC(=O)CCNC(=O)[C@H](O)C(C)(C)COC(=O)OCC[N+](C)(C)C [Compound 503, [2-([[(3R)-3-[(2-[[2-(acetylsulfanyl)ethyl]carbamoyl]ethyl)carbamoyl]-3-hydroxy-2,2-dimethylpropoxy]carbonyl]oxy)ethyl]trimethylazanium]
activation at 50 µM ([2]; assay condition A (10 mM glucose, 2 mM L-glutamine, 1 mM pyruvate, 10% FBS), read-out: Increase in Maximal Respiratory Capacity AUC): ≥ 10%
activation at 50 µM (HepG2 cells [1]): ≥ 20%

CCC(=O)OCC(C)(C)[C@@H](O)C(=O)NCCC(=O)NCCSSCCNC(=O)CCNC(=O)[C@H](O)C(C)(C)COC(=O)CC [Compound 1271, (3R)-3-hydroxy-3-[[2-([2-[(2-[3-[(2R)-2-hydroxy-3,3-dimethyl-4-(propanoyloxy)butanamido]propanamido]ethyl)disulfanyl]ethyl]carbamoyl)ethyl]carbamoyl]-2,2-dimethylpropyl propanoate]
activation at 10 µM (HepG2 cells [1]): ≥ 10%
